Reference: US20240384250A1, “FIBROBLAST GROWTH FACTOR 23 MODULATING COMPOUNDS” (THE UAB RESEARCH FOUNDATION, priority 2021, published 2024)

Key:
[1] = target: T1, FGF23 (Homo sapiens, UniProt Q9GZV9, R179Q); assay: Surface plasmon resonance, heparin immobilized on chip; assay type: binding; settings: SPR
T1 construct: purchased R&D Systems 2604FG025/CF
T1 sequence (Q9GZV9 25-251 R179Q): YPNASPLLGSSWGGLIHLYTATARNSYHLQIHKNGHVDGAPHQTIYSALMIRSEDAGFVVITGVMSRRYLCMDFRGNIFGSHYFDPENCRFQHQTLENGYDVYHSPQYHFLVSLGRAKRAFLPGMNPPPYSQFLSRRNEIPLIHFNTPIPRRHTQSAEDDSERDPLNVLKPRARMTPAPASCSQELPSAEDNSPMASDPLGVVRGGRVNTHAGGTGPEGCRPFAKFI
Procedure: (§1) For the direct quantitative analysis of label-free molecular interactions in real time, surface plasmon resonance studies were conducted using BIAcore T200 and T200 evaluation software (28975001, Cytiva). Sensor SA (BR100398) and CMS chips (BR100399) were from Cytiva. For the preparation of heparin chips, heparin (2 mg) and amine-PEG3-Biotin (2 mg, 21347, Pierce) were dissolved in 200 μl of H2O and 10 mg of NaCNBH3 was added. The reaction mixture was heated at 70° C. for 24 hours; an additional 10 mg of NaCNBH3 was added; and the reaction was heated at 70° C. for another 24 hours. After cooling to room temperature, the mixture was desalted with the spin column (3000 MWCO). Biotinylated heparin was collected, freeze dried, and used for chip preparation. Biotinylated heparin was immobilized to streptavidin chips according to the manufacturer's protocol. In brief, 20 μl of biotinylated heparin solution (0.1 mg/ml) in HBS-P running buffer (0.01 M N-2-hydroxyethylpiperazine-N′-2-ethanesulfonic acid, 0.15 M NaCl, 0.005% surfactant P20 [pH7.4]; BR100368, Cytiva) was injected over flow cell 2 of the streptavidin chip at a flow rate of 10 μl/min. The successful immobilization of heparin was confirmed by the observation of an approximately 200-resonance unit increase in the sensor chip. The control flow cell (flow cell 1) was prepared by 1-minute injection with saturated biotin. For the preparation of FGFR4 chips, Fc-FGFR4 protein (human ectodomain) was immobilized on research grade CMS chips according to the standard amine coupling protocol. Briefly, carboxymethyl groups on the CMS chip surface were first activated using an injection pulse of […] of an equimolar mix of N-ethyl-N-(dimethylaminopropyl) carbodiimide and N-hydroxysuccinimide (final concentration 0.05 M, mixed immediately before injection). After activation, FGFR4 was diluted to […] in 100 mM sodium acetate (pH 5.5) buffer and injected over the activated biosensor surface. Excess unreacted sites on the sensor surface were deactivated with a 35 μl injection of 1 M ethanolamine. A reference flow cell was prepared using an injection pulse of […] of an equimolar mix of N-ethyl-N-(dimethylaminopropyl) carbodiimide and N-hydroxysuccinimide (final concentration 0.05 M, mixed immediately before injection) followed by a 35 μl injection of 1 M ethanolamine. For the measurement of interactions between FGF23 (human protein), FGFR4 (human ectodomain protein), klotho (human ectodomain, self-made; see above), and heparin, samples were diluted in HBS-P buffer. Different dilutions of protein were injected at a flow rate of 30 μl/min with HBS-P buffer as running buffer. At the end of the sample injection, HBS-P buffer was flowed over the sensor surface to facilitate dissociation. After a 3-minute dissociation time, the sensor surface was regenerated by injecting with 30 μl of 2 M NaCl to get a fully regenerated surface. The response was monitored as a function of time (sensorgram) at 25° C.

[2] = target: T2, FGFR4 (Homo sapiens, UniProt P22455); assay: as above; assay type: binding; settings: SPR
T2 construct: Fc-FGFR4 protein (human ectodomain) was immobilized; purchased R&D Systems 685FR050
T2 sequence (P22455 22-369 limits assumed): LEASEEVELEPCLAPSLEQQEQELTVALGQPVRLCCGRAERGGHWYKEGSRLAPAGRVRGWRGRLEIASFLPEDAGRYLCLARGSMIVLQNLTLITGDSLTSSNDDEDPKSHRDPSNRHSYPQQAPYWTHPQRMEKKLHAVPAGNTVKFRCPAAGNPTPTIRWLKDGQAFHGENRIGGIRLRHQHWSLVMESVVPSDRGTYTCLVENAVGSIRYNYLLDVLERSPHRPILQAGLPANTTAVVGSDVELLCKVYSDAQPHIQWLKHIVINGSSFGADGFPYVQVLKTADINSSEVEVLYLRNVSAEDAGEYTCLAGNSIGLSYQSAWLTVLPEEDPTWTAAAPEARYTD
Procedure: as §1

[3] = target: T3, klotho (Homo sapiens, UniProt Q9UEF7); assay: as above; assay type: binding; settings: SPR
T3 construct: The sKL recombinant protein produced is mouse aa 35-982 and human aa 34-981; made in house; host or cells: Expi293 (HEK293) cells, stably transfected
T3 sequence (Q9UEF7 34-981): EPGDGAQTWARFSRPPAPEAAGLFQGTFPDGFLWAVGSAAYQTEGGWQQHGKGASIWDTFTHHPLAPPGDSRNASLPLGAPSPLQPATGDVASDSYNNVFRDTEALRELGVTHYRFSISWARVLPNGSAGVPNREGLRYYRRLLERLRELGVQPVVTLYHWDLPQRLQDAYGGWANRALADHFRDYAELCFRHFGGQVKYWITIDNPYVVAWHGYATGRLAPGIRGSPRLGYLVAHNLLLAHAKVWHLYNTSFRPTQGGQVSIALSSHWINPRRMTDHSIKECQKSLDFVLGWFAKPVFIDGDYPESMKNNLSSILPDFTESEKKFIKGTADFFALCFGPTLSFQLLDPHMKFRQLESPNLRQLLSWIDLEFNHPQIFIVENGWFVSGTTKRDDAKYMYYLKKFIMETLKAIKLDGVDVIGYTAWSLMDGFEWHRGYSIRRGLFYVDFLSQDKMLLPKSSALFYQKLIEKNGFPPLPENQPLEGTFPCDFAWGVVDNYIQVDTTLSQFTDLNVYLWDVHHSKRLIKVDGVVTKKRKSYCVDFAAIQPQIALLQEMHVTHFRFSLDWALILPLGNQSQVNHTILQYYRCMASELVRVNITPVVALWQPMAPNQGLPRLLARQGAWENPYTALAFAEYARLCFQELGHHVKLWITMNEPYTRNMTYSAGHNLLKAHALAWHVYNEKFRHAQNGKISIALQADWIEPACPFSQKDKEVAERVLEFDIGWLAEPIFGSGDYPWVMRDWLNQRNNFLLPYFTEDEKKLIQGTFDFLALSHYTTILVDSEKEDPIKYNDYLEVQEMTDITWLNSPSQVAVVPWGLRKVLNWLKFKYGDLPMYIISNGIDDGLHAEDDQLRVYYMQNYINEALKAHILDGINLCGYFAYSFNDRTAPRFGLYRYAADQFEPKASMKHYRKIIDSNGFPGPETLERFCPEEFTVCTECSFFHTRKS
Procedure: as §1

[4] = tested on: BALB/c mice on 0.2% adenine diet; settings: mouse, in vivo

Kd [1]: 7.6 nM
ka ([1]; 25° C.): 4.8 × 10^5 1/MS
kd ([1]; 25° C.): 3.6 × 10^−3 1/S
ka ([2]; 25° C.): 1.2 × 10^6 1/MS
Kd ([2]; read-out: dissociation constant KD): 2.8 nM
Kd [3]: 15 nM
ka ([3]; 25° C.): 8.0 × 10^4 1/MS
kd ([3]; 25° C.): 1.1 × 10^−3 1/S
effect on the heart [4]: no effect on the heart
Substance: heparin [reference compound]
ratio of heart weight to body weight [4]: not significantly altered
